Experimental findings from patent US20070254303A1, “Methods for assessing the efficacy of treatment with a glucocorticoid” (Praecis Pharmaceuticals Incorporated, priority 2006, published 2007) are described below.

Assay [1] addresses T1, MetAP-2 in white blood cells (Rattus norvegicus, UniProt P38062).
T1 construct: white blood cells from animals of each study group were pooled and cell lysates were prepared; from tissue; host or cells: white blood cells of female Lewis rats (PG-PS arthritis model)
Nature of the assay: MetAP-2 pharmacodynamic assay (ELISA of uninhibited MetAP-2 in white blood cell lysates of treated rats). It is filed as in vivo. The following applies: po, PG-PS arthritic rats, every other day, relative to the vehicle-treated group, read-out: MetAP-2 in white blood cells inhibited; for inhibition at 1 mg/kg: 1 mg/kg orally, pooled wbc after conclusion of study. How it is done:
After completion of the study, wbc from rats of different groups that had been treated with vehicle (p.o., qod), dex (1 mg/kg, p.o., qod) or MetAP-2 inhibitor (1, 5, or 10 mg/kg, p.o., qod) were pooled, lysed, and the amount of MetAP-2 inhibited in wbc lysates was determined by the MetAP-2 pharmacodynamic assay. All values are expressed as percentage of the amount of MetAP-2 inhibited compared with vehicle-treated rats. The amount of uninhibited MetAP-2 (=100%) in vehicle-treated rats in this assay corresponded to 41 ng MetAP-2 per mg wbc protein. The detection limit was 0.47 ng MetAP-2 per mg wbc protein. Columns: 10 rats per group, except for naive rats treated with vehicle (n=4).
(§1) Rat model of Peptidoglycan-Polysaccharide (PG-PS) induced arthritis. Female Lewis rats (109-130 g) were received from Charles River Laboratories. Food and water were available ad libitum. PG-PS (25 mg/kg) was injected intraperitoneally on day 1 and responding animals were randomized into treatment groups on day 14. Vehicle (11% HPCD in PBS), dexamethasone and a methionine aminopeptidase 2 inhibitor (1, 5, and 10 mg/kg) were administered orally, every other day. Paw swelling was monitored using a plethysmometer (Stoelting Co., Woodale, Ill.) according to instrument specifications. The volumes of the two hind paws were measured and averaged on day 1, 4, 6, 8, 10, 13, 15, 17, 20, 22, 23, 27, 29 and 31. Ten animals were assigned to each group except the vehicle group and animals which received no PG-PS, but 10 mg/kg of the methionine aminopeptidase 2 inhibitor (n=4). The methionine aminopeptidase 2 inhibitor comprising the structure structure (1-Carbamoyl-2-methyl-propyl)-carbamic acid-(3R, 4S, 5S, 6R )-5-methoxy-4-[(2R, 3R)-2-methyl-3-(3-methyl-but-2-enyl)-oxiranyl]-1-oxa-spiro[2.5]oct-6-yl ester was used in the present studies.
MetAP-2 pharmacodynamic assay. The MetAP-2 assay is an ELISA assay that measures the amount of uninhibited MetAP-2 in cells or tissues which has not been derivitized by prior treatment with a methionine aminopeptidase 2 inhibitor and/or a glucocorticoid. The assay was performed as described in, for example, Bernier, S. G., et al. (2004) Proc. Natl. Acad. Sci. USA 101: 10768-10773 and Bernier, S. G., et al. (2005) J. Cell. Biochem. 95:1191-1203, the entire contents of each of which are incorporated herein by reference. Briefly, white blood cells from animals of each study group were pooled and cell lysates were prepared as described in, for example, Bernier, S. G., et al. (2004) Proc. Natl. Acad. Sci. USA 101: 10768-10773 and Bernier, S. G., et al. (2005) J. Cell. Biochem. 95:1191-1203. […] After 1 hour, the plates were washed, and the immobilized biotinylated MetAP-2-inhibitor complex was then detected with an anti-MetAP-2 antibody, CM33 (0.5 μg/ml). […]
For orientation: In an ELISA, binding on a coated surface is turned into a signal by an enzyme label.

In assay [2] the test system is Peptidoglycan-Polysaccharide (PG-PS) induced arthritis. Kind of assay: Rat model of PG-PS induced arthritis, paw swelling of the hind limbs. Format: in vivo. The conditions noted are these: 1, 5 and 10 mg/kg orally, every other day, day 15 to day 31; compared to vehicle-treated animals. How it is done: as §1

T1 sequence (P38062 whole entry): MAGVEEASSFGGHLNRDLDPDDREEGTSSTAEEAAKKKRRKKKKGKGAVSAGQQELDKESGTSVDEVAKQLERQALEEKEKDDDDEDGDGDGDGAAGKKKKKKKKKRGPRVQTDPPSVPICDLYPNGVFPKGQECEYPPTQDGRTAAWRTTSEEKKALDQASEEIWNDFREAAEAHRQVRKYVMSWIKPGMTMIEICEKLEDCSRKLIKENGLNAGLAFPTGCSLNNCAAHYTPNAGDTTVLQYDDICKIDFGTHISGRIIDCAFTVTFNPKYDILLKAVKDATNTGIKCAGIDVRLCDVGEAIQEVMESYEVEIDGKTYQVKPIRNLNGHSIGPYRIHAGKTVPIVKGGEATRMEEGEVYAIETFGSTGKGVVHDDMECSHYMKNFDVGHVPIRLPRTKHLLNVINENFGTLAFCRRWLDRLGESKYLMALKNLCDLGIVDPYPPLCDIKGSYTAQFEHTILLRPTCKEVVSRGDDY

Turning to `CO[C@@H]1[C@H](OC(=O)N[C@@H](C(N)=O)C(C)C)CC[C@]2(CO2)[C@H]1[C@@]1(C)O[C@@H]1CC=C(C)C` [methionine aminopeptidase 2 inhibitor, (1-Carbamoyl-2-methyl-propyl)-carbamic acid-(3R, 4S, 5S, 6R )-5-methoxy-4-[(2R, 3R)-2-methyl-3-(3-methyl-but-2-enyl)-oxiranyl]-1-oxa-spiro[2.5]oct-6-yl ester], the inhibition at 1 mg/kg in assay [1] is no less than 60%. The inhibition at 5 mg/kg in assay [1] (5 mg/kg orally) is no less than 95%. The inhibition at 10 mg/kg in assay [1] (10 mg/kg orally) was no less than 95%. Further, the “joint swelling and inflammation, measured by paw swelling of the hind limbs” value in assay [2] is “significant amelioration of joint swelling and inflammation”.

Consider `C[C@@H]1C[C@H]2[C@@H]3CCC4=CC(=O)C=C[C@]4(C)[C@@]3(F)[C@@H](O)C[C@]2(C)[C@@]1(O)C(=O)CO` [dexamethasone, reference compound], for which the inhibition at 1 mg/kg in assay [1] was no less than 90%.
